ChEMBL document CHEMBL3779793, “Squaraines bearing halogenated moieties as anticancer photosensitizers: Synthesis, characterization and biological evaluation” (Eur J Med Chem, 2016)
Values belong to the compound of their own block, whether it stands above or below them. Activity calls are given as the source filed them. No cut-off for these calls is given here.

Tests used:
[1] = Dark cytotoxicity against human HT1080 cells at 0.25 to 1 uM after 24 to 72 hrs by WST-1 assay; format: cell-based; conditions: ht-1080, 1 µM
[2] = Dark cytotoxicity against human HT1080 cells at 2 to 10 uM after 24 to 72 hrs by WST-1 assay; format: cell-based; conditions: ht-1080, 10 µM
HT-1080 [3] = experiment: Photocytotoxicity against human HT1080 cells at 1 uM preincubated for 24 hrs followed by red LED irradiation for 20 mins measured after 24 to 72 hrs by WST-1 assay; format: functional, cell-based
[4] = Induction of singlet oxygen generation in PBS at 5 uM measured within 60 mins by DPBF-based singlet oxygen trapping method in presence of light; format: physicochemical; conditions: buffer, 1 h
[5] = Drug uptake in human HT1080 cells at 1 uM upto 24 hrs by flow cytometric analysis; format: ADME, cell-based; conditions: ht-1080, 24 h
[6] = Drug uptake in human HT1080 cells at 1 uM by flow cytometric analysis; format: ADME, cell-based; conditions: ht-1080, 1 µM, TDE = time-dependent effect
[7] = Induction of singlet oxygen generation in PBS at 5 uM measured within 5 to 10 mins by DPBF-based singlet oxygen trapping method in presence of light; format: physicochemical; conditions: buffer
[8] = Induction of necrosis in human HT1080 cells at 1 uM preincubated for 24 hrs measured after 6 hrs by Annexin V Alexa Fluor and PI staining based flow cytometry; format: cell-based; conditions: ht-1080, 6 h
[9] = Upregulation of GPX1 mRNA expression in human HT1080 cells at 1 uM preincubated for 24 hrs followed by red LED irradiation for 20 mins measured after 0.5 hrs by RT-PCR analysis relative to control; format: functional, cell-based; conditions: HT-1080
[10] = Upregulation of GPX1 mRNA expression in human HT1080 cells at 1 uM preincubated for 24 hrs followed by red LED irradiation for 20 mins measured after 3 to 24 hrs by RT-PCR analysis; format: functional, cell-based; conditions: HT-1080
[11] = Upregulation of BAX mRNA expression in human HT1080 cells at 1 uM preincubated for 24 hrs followed by red LED irradiation for 20 mins measured after 0.5 to 24 hrs by RT-PCR analysis; format: functional, cell-based; conditions: HT-1080
[12] = Upregulation of TP-53 mRNA expression in human HT1080 cells at 1 uM preincubated for 24 hrs followed by red LED irradiation for 20 mins measured after 3 hrs by RT-PCR analysis; format: functional, cell-based; conditions: HT-1080
HT-1080 [13] = experiment: Induction of reactive oxygen species generation in human HT1080 cells at 1 uM preincubated for 24 hrs followed by red LED irradiation for 20 mins measured upto 15 mins by DCFH-DA probe based flow cytometry; format: functional, cell-based
[14] = Dark cytotoxicity against human HT1080 cells at 2 uM after 24 to 72 hrs by WST-1 assay; format: cell-based; conditions: ht-1080, 2 µM
HT-1080 [15] = experiment: Induction of reactive oxygen species generation in human HT1080 cells assessed as increase in integrated median fluorescence intensity at 1 uM preincubated for 24 hrs followed by red LED irradiation for 20 mins measured after 1 min by DCFH-DA probe based flow cytometry relative to control; format: functional
[16] = Drug uptake in mitochondria of human HT1080 cells at 1 uM incubated for 24 hrs by MitoTracker green dye based laser scanning confocal microscopy; format: ADME; conditions: ht-1080, 24 h
HT-1080 [17] = experiment: Induction of necrosis in human HT1080 cells at 1 uM preincubated for 24 hrs followed by red LED irradiation for 20 mins measured after 6 hrs by Annexin V Alexa Fluor and PI staining based flow cytometry; format: functional
[18] = Induction of apoptosis in human HT1080 cells at 1 uM preincubated for 24 hrs measured after 6 hrs by Annexin V Alexa Fluor and PI staining based flow cytometry; format: cell-based; conditions: ht-1080, 6 h
[19] = Upregulation of NQO1 mRNA expression in human HT1080 cells at 1 uM preincubated for 24 hrs followed by red LED irradiation for 20 mins measured after 0.5 hrs by RT-PCR analysis relative to control; format: functional, cell-based; conditions: HT-1080
[20] = Downregulation of BCL-2 mRNA expression in human HT1080 cells at 1 uM preincubated for 24 hrs followed by red LED irradiation for 20 mins measured after 0.5 to 24 hrs by RT-PCR analysis; format: functional, cell-based; conditions: HT-1080
HT-1080 [21] = experiment: Increase in release of mitochondrial cytochrome c release in cytosolic extracts of human HT1080 cells at 1 uM preincubated for 24 hrs followed by red LED irradiation for 20 mins measured after 3 hrs by ELISA method; format: functional, cell-based
HT-1080 [22] = experiment: Increase in release of mitochondrial cytochrome c release in cytosolic extracts of human HT1080 cells at 1 uM preincubated for 24 hrs followed by red LED irradiation for 20 mins measured after 0.5 hrs by ELISA method; format: functional, cell-based
[23] = Upregulation of NQO1 mRNA expression in human HT1080 cells at 1 uM preincubated for 24 hrs followed by red LED irradiation for 20 mins measured upto 24 hrs by RT-PCR analysis; format: functional, cell-based; conditions: HT-1080
HT-1080 [24] = experiment: Induction of DNA damage in human HT1080 cells at 1 uM preincubated for 24 hrs followed by red LED irradiation for 20 mins measured after 30 mins by ARP probe based flow cytometry; format: functional, cell-based
[25] = Upregulation of APAF1 mRNA expression in human HT1080 cells at 1 uM preincubated for 24 hrs followed by red LED irradiation for 20 mins measured after 0.5 to 24 hrs by RT-PCR analysis; format: functional, cell-based; conditions: HT-1080
[26] = Upregulation of SOD2 mRNA expression in human HT1080 cells at 1 uM preincubated for 24 hrs followed by red LED irradiation for 20 mins measured after 0.5 hrs by RT-PCR analysis relative to control; format: functional, cell-based; conditions: HT-1080
[27] = Drug uptake in human HT1080 cells at 1 uM upto 6 hrs by flow cytometric analysis; format: ADME, cell-based; conditions: ht-1080, 6 h
HT-1080 [28] = experiment: Photocytotoxicity against human HT1080 cells at 1 uM preincubated for 24 hrs followed by red LED irradiation for 20 mins measured after 72 hrs by WST-1 assay; format: functional, cell-based
HT-1080 [29] = experiment: Photocytotoxicity against human HT1080 cells at 1 uM preincubated for 24 hrs followed by red LED irradiation for 20 mins measured after 48 to 72 hrs by WST-1 assay; format: functional, cell-based

Activity [4]: Active | Drug uptake [5]: Active
SMILES: CC1(C)C(/C=C2/C(=O)C(/C=C3\Nc4ccccc4C3(C)C)=C2O)=Nc2ccccc21
Activity [1]: Non-toxic | Activity [2]: Dose-dependent effect | Activity (HT-1080 [3]): inactive

Activity [7]: Active | Drug uptake [27]: Active
SMILES: CC1(C)C(/C=C2/C(=O)C(/C=C3\Nc4ccc(I)cc4C3(C)C)=C2O)=Nc2ccc(I)cc21
Activity [1]: Non-toxic | Activity [2]: Dose-dependent effect | Activity (HT-1080 [28]): Active

Drug uptake [6]: tde | Activity [7]: Active
SMILES: CCN1/C(=C/C2=C([O-])C(=C\C3=[N+](CC)c4ccc(Br)cc4C3(C)C)/C2=O)C(C)(C)c2cc(Br)ccc21
Activity [1]: Non-toxic | Activity [2]: Dose-dependent effect | Activity [14]: Non-toxic | Activity (HT-1080 [29]): Active

Second part, the compound before the results:

SMILES: CCCCN1/C(=C/C2=C([O-])C(=C\C3=[N+](CCCC)c4ccc(Br)cc4C3(C)C)/C2=O)C(C)(C)c2cc(Br)ccc21
Drug uptake [6]: tde | Activity [1]: Non-toxic | Activity [7]: Active | Activity [2]: Dose-dependent effect | Activity [8]: Non-toxic | fold change (FC) [9]: 34.6 | Activity [10]: inactive | Activity [11]: inactive | Activity [12]: Active | Activity (HT-1080 [13]): inactive | Activity (HT-1080 [3]): Active | Activity [14]: Non-toxic | fold change (FC) (HT-1080 [15]): 15.32 | Drug uptake [16]: Active | Activity (HT-1080 [17]): 81.9% | Activity [18]: Non-toxic | fold change (FC) [19]: 3.39 | Activity [20]: Active | Activity (HT-1080 [21]): inactive | Activity (HT-1080 [22]): Active | Activity [23]: inactive | Activity (HT-1080 [24]): Active | Activity [25]: inactive | Activity [26]: inactive

SMILES: CCCCN1/C(=C/C2=C([O-])C(=C\C3=[N+](CCCC)c4ccc(I)cc4C3(C)C)/C2=O)C(C)(C)c2cc(I)ccc21
Drug uptake [6]: tde | Activity [1]: Non-toxic | Activity [7]: Active | Activity [2]: Dose-dependent effect | Activity [8]: Non-toxic | fold change (FC) [9]: 54.6 | Activity [10]: inactive | Activity [11]: inactive | Activity [12]: inactive | Activity (HT-1080 [13]): inactive | Activity (HT-1080 [3]): Active | Activity [14]: Non-toxic | fold change (FC) (HT-1080 [15]): 32 | Drug uptake [16]: Active | Activity (HT-1080 [17]): 83% | Activity [18]: Non-toxic | fold change (FC) [19]: 5.56 | Activity [20]: Active | Activity (HT-1080 [21]): inactive | Activity (HT-1080 [22]): Active | Activity [23]: inactive | Activity (HT-1080 [24]): Active | Activity [25]: inactive | fold change (FC) [26]: 5.21

SMILES: CCN1/C(=C/C2=C([O-])C(=C\C3=[N+](CC)c4ccc(I)cc4C3(C)C)/C2=O)C(C)(C)c2cc(I)ccc21
Drug uptake [6]: tde | Activity [1]: Non-toxic | Activity [7]: Active | Activity [2]: Dose-dependent effect | Activity (HT-1080 [3]): inactive

SMILES: CC1(C)C(/C=C2/C(=O)C(/C=C3\Nc4ccc(Br)cc4C3(C)C)=C2O)=Nc2ccc(Br)cc21
Activity [1]: Non-toxic | Activity [7]: Active | Activity [2]: Dose-dependent effect | Drug uptake [27]: Active | Activity (HT-1080 [3]): inactive
